Reference: publication PMC12635268, “Novel antimicrobial peptides and peptide-microbiome crosstalk in Appalachian salamander skin” (NPJ Biofilms and Microbiomes, 2025)
Converted amounts (≈) assume the structure as drawn. Like-named read-outs stand apart in the source and are kept apart here.

Tests used:
Assay in all cases: microbe, parasite or virus in culture
E. coli ATCC 35218 = conditions: for Bacterial MIC: E. coli 35218; for MIC: Escherichia coli
Procedure, shortened: (§1)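 Each strain was exposed in duplicate to two-fold peptide dilutions (0.25 to 128 μg/mL) in cation-adjusted Mueller-Hinton broth at 1 × 10⁵ CFU/mL. After 20 h at 37 °C without shaking, the lowest concentration lacking visible growth was recorded following CLSI.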

E. faecium ATCC 49224 = conditions: Enterococcus faecium
Procedure, shortened: as §1

S. aureus ATCC 25923 = conditions: for Bacterial MIC: S. aureus 25923; for MIC: Staphylococcus aureus
Procedure, shortened: as §1

P. aeruginosa ATCC 27853 = conditions: Pseudomonas aeruginosa
Procedure, shortened: as §1

E. faecium ATCC 19434 = conditions: Enterococcus faecium
Procedure, shortened: as §1

S. aureus ATCC 43300 = conditions: for Bacterial MIC: S. aureus 43300; for MIC: Staphylococcus aureus
Procedure, shortened: as §1

A. baumannii ATCC 19606 = conditions: Acinetobacter baumannii
Procedure, shortened: as §1

P. aeruginosa MRSN 5519 = conditions: Pseudomonas aeruginosa
Procedure, shortened: as §1

K. pneumoniae ATCC 13883 = conditions: Klebsiella pneumoniae
Procedure, shortened: as §1

[1] = system: K. pneumoniae ATCC 700603; conditions: Klebsiella pneumoniae
Procedure, shortened: as §1

P. aeruginosa PA01 = assay type: cell-based; conditions: Pseudomonas aeruginosa
Procedure, shortened: as §1

P. aeruginosa PA01 (Si) = assay type: cell-based; conditions: P. aeruginosa PA01 (Si), not typical ESKAPEE strain
Excerpt: Supplement 41522_2025_837_MOESM13_ESM.xlsx, sheet "Table_S13_ESKAPEE-MIC" | column: Bacterial MIC (µg/mL)

C[C@H]1COc2c(N3CCN(C)CC3)c(F)cc3c(=O)c(C(=O)O)cn1c23 [Levofloxacin, reference compound]
Bacterial MIC (E. coli ATCC 35218; Historical run 15NOV23): <= 0.250 µg/mL | Bacterial MIC (E. coli ATCC 35218; Historical run 19APRIL23): <= 0.250 µg/mL | Bacterial MIC (E. coli ATCC 35218; Historical run 22NOV23): <= 0.250 µg/mL | Bacterial MIC (E. coli ATCC 35218; Week 2 (12/14/2023)): <= 0.250 µg/mL | MIC (E. coli ATCC 35218; ATCC35218, 20 h): 0.25 µg/mL (≈ 0.692 µM) | MIC (E. coli ATCC 35218; ATCC35218, read-out: Bacterial MIC): ≤ 0.25 µg/mL | MIC (E. faecium ATCC 49224; ATCC49224, 20 h, E. faecium 49224, CAMHB, 1 × 10⁵ CFU/mL, 0.25 to 128 μg/mL, 37 °C 20 h, duplicate, read visually (CLSI)): 2 µg/mL (≈ 5.53 µM) | MIC (E. faecium ATCC 49224; ATCC49224, read-out: Bacterial MIC, E. faecium 49224, Historical run 15NOV23): 1 µg/mL (≈ 2.77 µM) | MIC (E. faecium ATCC 49224; ATCC49224, read-out: Bacterial MIC, E. faecium 49224, Historical run 19APRIL23): 2 µg/mL (≈ 5.53 µM) | MIC (E. faecium ATCC 49224; ATCC49224, read-out: Bacterial MIC, E. faecium 49224, Historical run 22NOV23): 1 µg/mL (≈ 2.77 µM) | MIC (E. faecium ATCC 49224; ATCC49224, read-out: Bacterial MIC, E. faecium 49224, Week 1 (12/6/2023)): 2 µg/mL (≈ 5.53 µM) | MIC (E. faecium ATCC 49224; ATCC49224, read-out: Bacterial MIC, E. faecium 49224, Week 2 (12/14/2023)): 2 µg/mL (≈ 5.53 µM) | Bacterial MIC (S. aureus ATCC 25923; Historical run 15NOV23): <= 0.250 µg/mL | Bacterial MIC (S. aureus ATCC 25923; Historical run 19APRIL23): <= 0.250 µg/mL | Bacterial MIC (S. aureus ATCC 25923; Historical run 22NOV23): <= 0.250 µg/mL | Bacterial MIC (S. aureus ATCC 25923; Week 2 (12/14/2023)): <= 0.250 µg/mL | MIC (S. aureus ATCC 25923; ATCC25923, 20 h): 0.25 µg/mL (≈ 0.692 µM) | MIC (S. aureus ATCC 25923; ATCC25923, read-out: Bacterial MIC): ≤ 0.25 µg/mL | MIC (P. aeruginosa ATCC 27853; ATCC27853, 20 h, P. aeruginosa 27853, CAMHB, 1 × 10⁵ CFU/mL, 0.25 to 128 μg/mL, 37 °C 20 h, duplicate, read visually (CLSI)): 0.5 µg/mL (≈ 1.38 µM) | MIC (P. aeruginosa ATCC 27853; ATCC27853, read-out: Bacterial MIC, P. aeruginosa 27853, Historical run 15NOV23): 1 µg/mL (≈ 2.77 µM) | MIC (P. aeruginosa ATCC 27853; ATCC27853, read-out: Bacterial MIC, P. aeruginosa 27853, Historical run 19APRIL23): 1 µg/mL (≈ 2.77 µM) | MIC (P. aeruginosa ATCC 27853; ATCC27853, read-out: Bacterial MIC, P. aeruginosa 27853, Historical run 22NOV23): 0.5 µg/mL (≈ 1.38 µM) | MIC (P. aeruginosa ATCC 27853; ATCC27853, read-out: Bacterial MIC, P. aeruginosa 27853, Week 1 (12/6/2023)): 0.5 µg/mL (≈ 1.38 µM) | MIC (P. aeruginosa ATCC 27853; ATCC27853, read-out: Bacterial MIC, P. aeruginosa 27853, Week 2 (12/14/2023)): 0.5 µg/mL (≈ 1.38 µM) | MIC (E. faecium ATCC 19434; ATCC19434, 20 h, E. faecium 19434, CAMHB, 1 × 10⁵ CFU/mL, 0.25 to 128 μg/mL, 37 °C 20 h, duplicate, read visually (CLSI)): 4 µg/mL (≈ 11.1 µM) | MIC (E. faecium ATCC 19434; ATCC19434, read-out: Bacterial MIC, E. faecium 19434, Historical run 15NOV23): 4 µg/mL (≈ 11.1 µM) | MIC (E. faecium ATCC 19434; ATCC19434, read-out: Bacterial MIC, E. faecium 19434, Historical run 19APRIL23): 4 µg/mL (≈ 11.1 µM) | MIC (E. faecium ATCC 19434; ATCC19434, read-out: Bacterial MIC, E. faecium 19434, Historical run 22NOV23): 2 µg/mL (≈ 5.53 µM) | MIC (E. faecium ATCC 19434; ATCC19434, read-out: Bacterial MIC, E. faecium 19434, Week 1 (12/6/2023)): 4 µg/mL (≈ 11.1 µM) | MIC (E. faecium ATCC 19434; ATCC19434, read-out: Bacterial MIC, E. faecium 19434, Week 2 (12/14/2023)): 4 to 8 µg/mL (≈ 11.1 to 22.1 µM) | Bacterial MIC (S. aureus ATCC 43300; Historical run 15NOV23): <= 0.250 µg/mL | Bacterial MIC (S. aureus ATCC 43300; Historical run 19APRIL23): <= 0.250 µg/mL | Bacterial MIC (S. aureus ATCC 43300; Historical run 22NOV23): <= 0.250 µg/mL | Bacterial MIC (S. aureus ATCC 43300; Week 2 (12/14/2023)): <= 0.250 µg/mL | MIC (S. aureus ATCC 43300; ATCC43300, 20 h): 0.25 µg/mL (≈ 0.692 µM) | MIC (S. aureus ATCC 43300; ATCC43300, read-out: Bacterial MIC): ≤ 0.25 µg/mL | MIC (A. baumannii ATCC 19606; ATCC19606, 20 h, A. baumannii 19606, CAMHB, 1 × 10⁵ CFU/mL, 0.25 to 128 μg/mL, 37 °C 20 h, duplicate, read visually (CLSI)): 0.25 µg/mL (≈ 0.692 µM) | MIC (A. baumannii ATCC 19606; ATCC19606, read-out: Bacterial MIC, A. baumannii 19606, Historical run 15NOV23): 0.5 µg/mL (≈ 1.38 µM) | MIC (A. baumannii ATCC 19606; ATCC19606, read-out: Bacterial MIC, A. baumannii 19606, Historical run 19APRIL23): 0.5 µg/mL (≈ 1.38 µM) | MIC (A. baumannii ATCC 19606; ATCC19606, read-out: Bacterial MIC, A. baumannii 19606, Historical run 22NOV23): ≤ 0.25 µg/mL | MIC (A. baumannii ATCC 19606; ATCC19606, read-out: Bacterial MIC, A. baumannii 19606, Week 1 (12/6/2023)): ≤ 0.25 µg/mL | MIC (A. baumannii ATCC 19606; ATCC19606, read-out: Bacterial MIC, A. baumannii 19606, Week 2 (12/14/2023)): ≤ 0.25 µg/mL | MIC (P. aeruginosa MRSN 5519; MRSN5519, 20 h, P. aeruginosa 5519, CAMHB, 1 × 10⁵ CFU/mL, 0.25 to 128 μg/mL, 37 °C 20 h, duplicate, read visually (CLSI)): 32 µg/mL (≈ 88.6 µM) | MIC (P. aeruginosa MRSN 5519; MRSN5519, read-out: Bacterial MIC, P. aeruginosa 5519, Historical run 15NOV23): 64 µg/mL (≈ 177 µM) | MIC (P. aeruginosa MRSN 5519; MRSN5519, read-out: Bacterial MIC, P. aeruginosa 5519, Historical run 19APRIL23): 64 µg/mL (≈ 177 µM) | MIC (P. aeruginosa MRSN 5519; MRSN5519, read-out: Bacterial MIC, P. aeruginosa 5519, Historical run 22NOV23): 32 µg/mL (≈ 88.6 µM) | MIC (P. aeruginosa MRSN 5519; MRSN5519, read-out: Bacterial MIC, P. aeruginosa 5519, Week 1 (12/6/2023)): 32 µg/mL (≈ 88.6 µM) | MIC (P. aeruginosa MRSN 5519; MRSN5519, read-out: Bacterial MIC, P. aeruginosa 5519, Week 2 (12/14/2023)): 32 µg/mL (≈ 88.6 µM) | MIC (K. pneumoniae ATCC 13883; ATCC13883, 20 h, K. pneumoniae 13883, CAMHB, 1 × 10⁵ CFU/mL, 0.25 to 128 μg/mL, 37 °C 20 h, duplicate, read visually (CLSI)): 0.25 µg/mL (≈ 0.692 µM) | MIC (K. pneumoniae ATCC 13883; ATCC13883, read-out: Bacterial MIC, K. pneumoniae 13883, Historical run 15NOV23): ≤ 0.25 µg/mL | MIC (K. pneumoniae ATCC 13883; ATCC13883, read-out: Bacterial MIC, K. pneumoniae 13883, Historical run 19APRIL23): 0.25 to 0.5 µg/mL (≈ 0.692 to 1.38 µM) | MIC (K. pneumoniae ATCC 13883; ATCC13883, read-out: Bacterial MIC, K. pneumoniae 13883, Historical run 22NOV23): ≤ 0.25 µg/mL | MIC (K. pneumoniae ATCC 13883; ATCC13883, read-out: Bacterial MIC, K. pneumoniae 13883, Week 1 (12/6/2023)): ≤ 0.25 µg/mL | MIC (K. pneumoniae ATCC 13883; ATCC13883, read-out: Bacterial MIC, K. pneumoniae 13883, Week 2 (12/14/2023)): ≤ 0.25 µg/mL | MIC ([1]; ATCC700603, 20 h, K. pneumoniae 700603, CAMHB, 1 × 10⁵ CFU/mL, 0.25 to 128 μg/mL, 37 °C 20 h, duplicate, read visually (CLSI)): 0.5 µg/mL (≈ 1.38 µM) | MIC ([1]; ATCC700603, read-out: Bacterial MIC, K. pneumoniae 700603, Historical run 15NOV23): 0.5 µg/mL (≈ 1.38 µM) | MIC ([1]; ATCC700603, read-out: Bacterial MIC, K. pneumoniae 700603, Historical run 19APRIL23): 0.5 to 1 µg/mL (≈ 1.38 to 2.77 µM) | MIC ([1]; ATCC700603, read-out: Bacterial MIC, K. pneumoniae 700603, Historical run 22NOV23): ≤ 0.25 µg/mL | MIC ([1]; ATCC700603, read-out: Bacterial MIC, K. pneumoniae 700603, Week 1 (12/6/2023)): 0.5 µg/mL (≈ 1.38 µM) | MIC ([1]; ATCC700603, read-out: Bacterial MIC, K. pneumoniae 700603, Week 2 (12/14/2023)): 0.5 µg/mL (≈ 1.38 µM) | MIC (P. aeruginosa PA01; PA01, 20 h, P. aeruginosa PA01, CAMHB, 1 × 10⁵ CFU/mL, 0.25 to 128 μg/mL, 37 °C 20 h, duplicate, read visually (CLSI), read-out: MIC): 8 µg/mL (≈ 22.1 µM) | MIC (P. aeruginosa PA01; PAO1, P. aeruginosa 15692 (PAO1), Historical run 15NOV23, read-out: Bacterial MIC): 0.5 µg/mL (≈ 1.38 µM) | MIC (P. aeruginosa PA01; PAO1, P. aeruginosa 15692 (PAO1), Historical run 19APRIL23, read-out: Bacterial MIC): 0.5 µg/mL (≈ 1.38 µM) | MIC (P. aeruginosa PA01; PAO1, P. aeruginosa 15692 (PAO1), Historical run 22NOV23, read-out: Bacterial MIC): ≤ 0.25 µg/mL | MIC (P. aeruginosa PA01; PAO1, P. aeruginosa 15692 (PAO1), Week 2 (12/14/2023), read-out: Bacterial MIC): ≤ 0.25 µg/mL | Bacterial MIC (P. aeruginosa PA01 (Si); Week 2 (12/14/2023)): 8 µg/mL | MIC (P. aeruginosa PA01 (Si); Pseudomonas aeruginosa, Week 1 (12/6/2023), read-out: Bacterial MIC): 8 µg/mL (≈ 22.1 µM)
